Numbered stars: 1 amine (or outer) side, 2 acyl side, 3 side chain; on linkers, the order of the positions; unused ones are H or OH. Bridge positions count the residues as written; N and C are the ends. Square brackets hold non-standard residues; d marks the D form. Peptide text beside a SMILES is read from it. * marks the point of attachment. Bip(4'-COOH) = N[C@@H](Cc1ccc(-c2ccc(C(=O)O)cc2)cc1)C(=O)O; X35 = O=C([C@H](Cc1ccc(-c2cccc(F)c2)cc1)N[*:1])[*:2]; Tyr(3,5-I2) = N[C@@H](Cc1cc(I)c(O)c(I)c1)C(=O)O; Ala(morpholin-4-yl) = N[C@@H](CN1CCOCC1)C(=O)O; Phe(4-COOH) = N[C@@H](Cc1ccc(C(=O)O)cc1)C(=O)O; dPhe(4-CN) = N#Cc1ccc(C[C@@H](N)C(=O)O)cc1; Bip = N[C@@H](Cc1ccc(-c2ccccc2)cc1)C(=O)O; Phe(3-F) = N[C@@H](Cc1cccc(F)c1)C(=O)O; Phe(3-Me) = Cc1cccc(C[C@H](N)C(=O)O)c1; 4Pal = N[C@@H](Cc1ccncc1)C(=O)O; Carboxymethyl = O=C(O)C*; NMeA = CN[C@@H](C)C(=O)O; Nle = CCCC[C@H](N)C(=O)O; Orn = NCCC[C@H](N)C(=O)O; Dab = NCC[C@H](N)C(=O)O; Dap = NC[C@H](N)C(=O)O
target: T1, PE-labeled human PD-L1-Ig binding to Jurkat cell line over-expressing human PD-1 (Jurkat-PD-1) (Homo sapiens, UniProt Q15116); assay: Jurkat-PD-1 Cell Binding High-Content Screening Assay (CBA): Method 1; settings: Jurkat-hPD-1 cells, PE-labeled PD-L1-Ig 20 nM final; read-out: Jurkat HPDL1 PD1 IC50 (uM) (Method 1)
T1 construct: expressed in transfected cells; host or cells: Jurkat
T1 sequence (Q15116 25-288): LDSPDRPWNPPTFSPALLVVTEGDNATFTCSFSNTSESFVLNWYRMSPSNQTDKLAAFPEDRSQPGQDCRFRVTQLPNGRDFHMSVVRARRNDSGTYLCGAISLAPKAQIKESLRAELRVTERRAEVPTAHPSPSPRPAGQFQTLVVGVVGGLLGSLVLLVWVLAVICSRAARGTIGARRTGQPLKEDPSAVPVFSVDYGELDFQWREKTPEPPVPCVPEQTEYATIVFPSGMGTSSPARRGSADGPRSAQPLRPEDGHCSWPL

| SMILES | IC50 [µM] |
| --- | --- |
| CC(C)C[C@@H]1NC(=O)[C@H](CCN)NC(=O)[C@@H](CC(C)C)NC(=O)[C@H](C)N(C)C(=O)[C@H](C(C)C)NC(=O)[C@H](Cc2ccc(-c3ccccc3)cc2)NC(=O)[C@H](C(C)C)NC(=O)[C@H](Cc2c[nH]c3ccccc23)NC(=O)[C@H](CC(=O)O)NC(=O)[C@H](Cc2ccc(OCC(=O)O)cc2)NC(=O)[C@H](CN)NC(=O)CSC[C@@H](C(=O)N[C@@H](C)C(N)=O)NC(=O)[C@H]([C@@H](C)O)NC(=O)[C@H](C(C)C)NC1=O [Compound 1447] ({CH2CO}-[Dap]Y(Carboxymethyl)DWV[Bip]V[NMeA][dL][Dab]LVTCA-NH2; thioether N-14) | 0.03 |
| CC(C)C[C@@H]1NC(=O)[C@H](Cc2c[nH]c3ccccc23)NC(=O)[C@H](CC(=O)O)NC(=O)[C@H](Cc2ccc(O)cc2)NC(=O)[C@H](Cc2ccccc2)NC(=O)CSC[C@@H](C(=O)NCC(N)=O)NC(=O)[C@H](CO)NC(=O)[C@H](C(C)C)NC(=O)[C@H](CC(C)C)NC(=O)[C@H](CC(=O)O)NC(=O)[C@@H](CC(=O)O)NC(=O)[C@H](C)N(C)C(=O)[C@H](C(C)C)NC(=O)[C@H](Cc2ccc(-c3ccccc3)cc2)NC1=O [Compound 1829] ({CH2CO}-FYDWL[Bip]V[NMeA][dD]DLVSCG-NH2; thioether N-14) | 0.85 |
| CC(C)C[C@@H]1NC(=O)[C@H](CCCCN)NC(=O)[C@@H](CC(C)C)NC(=O)[C@H](C)N(C)C(=O)[C@H](CCCNC(=N)N)NC(=O)[C@H](Cc2ccc(-c3ccccc3)cc2)NC(=O)[C@H](C(C)C)NC(=O)[C@H](Cc2c[nH]c3ccccc23)NC(=O)[C@H](CC(=O)O)NC(=O)[C@H](Cc2ccc(O)cc2)NC(=O)[C@H](CC(N)=O)NC(=O)CSC[C@@H](C(=O)N[C@@H](C)C(N)=O)NC(=O)[C@H]([C@@H](C)O)NC(=O)[C@H](C(C)C)NC1=O [Compound 1269] ({CH2CO}-NYDWV[Bip]R[NMeA][dL]KLVTCA-NH2; thioether N-14) | 0.03 |
| CC(C)C[C@@H]1NC(=O)[C@H](CCCNC(=N)N)NC(=O)[C@@H](CC(C)C)NC(=O)[C@H](C)N(C)C(=O)[C@H](CCCNC(=N)N)NC(=O)[C@H](Cc2ccc(-c3ccccc3)cc2)NC(=O)[C@H](C(C)C)NC(=O)[C@H](Cc2c[nH]c3ccccc23)NC(=O)[C@H](CC(=O)O)NC(=O)[C@H](Cc2cc(I)c(O)c(I)c2)NC(=O)[C@H](Cc2ccccc2)NC(=O)CSC[C@@H](C(=O)N[C@@H](C)C(N)=O)NC(=O)[C@H]([C@@H](C)O)NC(=O)[C@H](C(C)C)NC1=O [Compound 1093] ({CH2CO}-F[Tyr(3,5-I2)]DWV[Bip]R[NMeA][dL]RLVTCA-NH2; thioether N-14) | 0.05 |
| Cc1cccc(C[C@@H]2NC(=O)[C@H](CC(=O)O)NC(=O)[C@H](Cc3ccc(OCC(=O)O)cc3)NC(=O)[C@H](CN3CCOCC3)NC(=O)CSC[C@@H](C(=O)N[C@@H](CCN)C(N)=O)NC(=O)[C@H](CCCN)NC(=O)[C@H](C(C)C)NC(=O)[C@H](Cc3cccc(F)c3)NC(=O)[C@H](CCN)NC(=O)[C@@H](CC(C)C)NC(=O)[C@H](C)N(C)C(=O)[C@H](CCC(N)=O)NC(=O)[C@H](Cc3ccc(-c4ccccc4)cc3)NC(=O)[C@H](Cc3ccc(C(=O)O)cc3)NC2=O)c1 [Example 2294] ({CH2CO}-[Ala(morpholin-4-yl)]Y(Carboxymethyl)D[Phe(3-Me)][Phe(4-COOH)][Bip]Q[NMeA][dL][Dab][Phe(3-F)]V[Orn]C[Dab]-NH2; thioether N-14) | 0.95 |

Further molecules by falling IC50, results first:

| IC50 [µM] | SMILES |
| --- | --- |
| 0.82 | CCCC[C@@H]1NC(=O)CSC[C@@H](C(=O)NCC(N)=O)NC(=O)[C@H](CO)NC(=O)[C@H](C(C)C)NC(=O)[C@H](CC(C)C)NC(=O)[C@H](CC(=O)O)NC(=O)[C@H](CC(N)=O)NC(=O)[C@H](C)N(C)C(=O)[C@H](C(C)C)NC(=O)[C@H](Cc2ccc(-c3ccccc3)cc2)NC(=O)[C@H](CC(C)C)NC(=O)[C@H](Cc2c[nH]c3ccccc23)NC(=O)[C@H](CC(=O)O)NC(=O)[C@H](Cc2ccc(O)cc2)NC1=O [Compound 1828] ({CH2CO}-[Nle]YDWL[Bip]V[NMeA]NDLVSCG-NH2; thioether N-14) |
| 0.29 | CC(C)C[C@@H]1NC(=O)[C@H](CCN)NC(=O)[C@@H](CC(C)C)NC(=O)[C@H](C)N(C)C(=O)[C@H](CCCNC(=N)N)NC(=O)[C@H](Cc2ccc(-c3ccccc3)cc2)NC(=O)[C@H](C(C)C)NC(=O)[C@H](Cc2c[nH]c3ccccc23)NC(=O)[C@H](CC(=O)O)NC(=O)[C@H](Cc2ccc(O)cc2)NC(=O)[C@H](CC(N)=O)NC(=O)CSC[C@@H](C(=O)N[C@@H](CCC(=O)O)C(N)=O)NC(=O)[C@H]([C@@H](C)O)NC(=O)[C@H](C(C)C)NC1=O [Compound 1172] ({CH2CO}-NYDWV[Bip]R[NMeA][dL][Dab]LVTCE-NH2; thioether N-14) |
| 0.07 | CC(C)C[C@@H]1NC(=O)[C@H](CCCNC(=N)N)NC(=O)[C@@H](Cc2ccc(C#N)cc2)NC(=O)[C@H](C)N(C)C(=O)[C@H](CCCNC(=N)N)NC(=O)[C@H](Cc2ccc(-c3ccccc3)cc2)NC(=O)[C@H](C(C)C)NC(=O)[C@H](Cc2c[nH]c3ccccc23)NC(=O)[C@H](CC(=O)O)NC(=O)[C@H](Cc2ccc(O)cc2)NC(=O)[C@H](Cc2ccccc2)NC(=O)CSC[C@@H](C(=O)N[C@@H](C)C(N)=O)NC(=O)[C@H]([C@@H](C)O)NC(=O)[C@H](C(C)C)NC1=O [Compound 1107] ({CH2CO}-FYDWV[Bip]R[NMeA][dPhe(4-CN)]RLVTCA-NH2; thioether N-14) |
| 0.03 | CC(C)C[C@@H]1NC(=O)[C@H](Cc2c[nH]c3ccccc23)NC(=O)[C@H](CC(=O)O)NC(=O)[C@H](Cc2ccc(O)cc2)NC(=O)[C@H](Cc2ccccc2)NC(=O)CSC[C@@H](C(=O)N[C@@H](C)C(N)=O)NC(=O)[C@H](CO)NC(=O)[C@H](C(C)C)NC(=O)[C@H](CC(C)C)NC(=O)[C@H](CC(N)=O)NC(=O)[C@@H](C)NC(=O)[C@H](C)N(C)C(=O)[C@H](C(C)C)NC(=O)[C@H](Cc2ccc(-c3cccc(F)c3)cc2)NC1=O [Compound 1759] ({CH2CO}-FYDWL[X35]V[NMeA][dA]NLVSCA-NH2; thioether N-14) |
| 0.03 | CC(C)C[C@@H]1NC(=O)[C@H](Cc2c[nH]c3ccccc23)NC(=O)[C@H](CC(=O)O)NC(=O)[C@H](Cc2ccc(OCC(=O)O)cc2)NC(=O)[C@H](Cc2ccc(-c3ccc(C(=O)O)cc3)cc2)NC(=O)CSC[C@@H](C(=O)N[C@@H](CC(N)=O)C(N)=O)NC(=O)[C@H](CO)NC(=O)[C@H](C(C)C)NC(=O)[C@H](CC(C)C)NC(=O)[C@H](CCN)NC(=O)[C@@H](CC(C)C)NC(=O)[C@H](C)N(C)C(=O)[C@H](Cc2cnc[nH]2)NC(=O)[C@H](Cc2ccc(-c3ccccc3)cc2)NC1=O [Compound 2097] ({CH2CO}-[Bip(4'-COOH)]Y(Carboxymethyl)DWL[Bip]H[NMeA][dL][Dab]LVSCN-NH2; thioether N-14) |
| 0.01 | Cc1cccc(C[C@@H]2NC(=O)[C@H](CC(=O)O)NC(=O)[C@H](Cc3ccncc3)NC(=O)[C@H](Cc3ccc(OCC(=O)O)cc3)NC(=O)CSC[C@@H](C(=O)N[C@@H](C)C(N)=O)NC(=O)[C@H](CO)NC(=O)[C@H](C(C)C)NC(=O)[C@H](CC(C)C)NC(=O)[C@H](CC(N)=O)NC(=O)[C@@H](C)NC(=O)[C@H](C)N(C)C(=O)[C@H](C(C)C)NC(=O)[C@H](Cc3ccc(-c4ccccc4)cc3)NC(=O)[C@H](CC(C)C)NC2=O)c1 [Compound 1583] ({CH2CO}-Y(Carboxymethyl)[4Pal]D[Phe(3-Me)]L[Bip]V[NMeA][dA]NLVSCA-NH2; thioether N-14) |

From patent US20240409585A1, “MACROCYCLIC IMMUNOMODULATORS” (priority 2021, published 2024)
